Numbered stars: 1 amine (or outer) side, 2 acyl side, 3 side chain; on linkers, the order of the positions; unused ones are H or OH. Bridge positions count the residues as written; N and C are the ends. Square brackets hold non-standard residues; d marks the D form. Peptide text beside a SMILES is read from it. * marks the point of attachment. ξ: configuration not given here. TBMB(SCH2CH2NH-DOTA) = O=C(O)CN1CCN(CC(=O)O)CCN(CC(=O)NCCSCc2cc(C[*:1])cc(C[*:2])c2)CCN(CC(=O)O)CC1; X7 = O=C(CCP(=O)(O)CN1CCN(CP(=O)(O)CO)CCN(CP(=O)(O)CO)CC1)NCCSCc1cc(C[*:1])cc(C[*:2])c1; CO = O=C([*:1])[*:2]; ξC = NC(CS)C(=O)O; Sar = CNCC(=O)O; NHBu = CCCCN*
How the values were obtained:
[1] = target: T1, FAP-expressing human WI-38 fibroblasts (Homo sapiens, UniProt Q12884); assay: Competitive FACS binding assay
T1 construct: FAP-expressing human WI-38 fibroblasts (ECACC) were cultured in EMEM; host or cells: WI-38 human fibroblasts
T1 sequence (Q12884 whole entry): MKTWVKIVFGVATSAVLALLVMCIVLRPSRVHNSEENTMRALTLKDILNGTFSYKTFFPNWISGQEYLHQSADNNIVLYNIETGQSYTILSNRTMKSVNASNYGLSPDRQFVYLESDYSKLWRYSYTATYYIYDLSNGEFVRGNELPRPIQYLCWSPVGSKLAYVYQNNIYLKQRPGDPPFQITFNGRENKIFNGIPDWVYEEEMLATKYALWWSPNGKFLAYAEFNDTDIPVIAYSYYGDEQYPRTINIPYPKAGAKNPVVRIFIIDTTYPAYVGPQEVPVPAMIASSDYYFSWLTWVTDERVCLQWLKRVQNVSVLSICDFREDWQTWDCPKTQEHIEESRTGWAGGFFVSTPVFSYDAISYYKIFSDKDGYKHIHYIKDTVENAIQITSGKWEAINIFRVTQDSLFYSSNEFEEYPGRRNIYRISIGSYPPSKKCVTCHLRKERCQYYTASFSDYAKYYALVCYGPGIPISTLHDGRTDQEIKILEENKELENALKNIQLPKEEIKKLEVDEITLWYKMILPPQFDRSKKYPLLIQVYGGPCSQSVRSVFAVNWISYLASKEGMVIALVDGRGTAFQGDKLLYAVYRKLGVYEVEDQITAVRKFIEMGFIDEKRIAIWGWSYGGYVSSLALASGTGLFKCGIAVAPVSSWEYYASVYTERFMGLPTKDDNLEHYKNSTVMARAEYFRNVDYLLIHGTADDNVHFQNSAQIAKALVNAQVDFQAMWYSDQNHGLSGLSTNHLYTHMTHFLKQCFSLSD
Method: Cells were analyzed in an Attune NxT flow cytometer. […] […].
Cells were analyzed in an Attune NxT flow cytometer. […]

Human recombinant FAP [2] = target: T2, Human recombinant FAP (Homo sapiens, UniProt Q12884); assay: Surface plasmon resonance (Biacore) assay; assay type: binding
T2 sequence (Q12884 whole entry): as above

Human recombinant FAP [3] = target: T2, Human recombinant FAP; assay: FRET-based FAP protease activity assay; assay type: biochemical; design: purchased R&D systems 3715-SE
in vivo = conditions: female, athymic nude, mouse, iv
[4] = pIC50 Category (Activity), FRET-peptide substrate, 37° C.
[5] = blood pool surrogate (BPS), uptake BPS 0.25 h, ^68Ga-labeled, BPS (blood pool surrogate), PET/CT, 0.25 h post tracer injection
[6] = blood pool surrogate (BPS), uptake BPS 1 h, ^68Ga-labeled, BPS (blood pool surrogate), PET/CT, 1 h post tracer injection
[7] = blood pool surrogate (BPS), uptake BPS 3 h, ^68Ga-labeled, BPS (blood pool surrogate), PET/CT, 3 h post tracer injection
[8] = kidneys, uptake Kidneys 0.25 h, ^68Ga-labeled, PET/CT, 0.25 h post tracer injection
[9] = kidneys, uptake Kidneys 1 h, ^68Ga-labeled, PET/CT, 1 h post tracer injection
[10] = kidneys, uptake Kidneys 3 h, ^68Ga-labeled, PET/CT, 3 h post tracer injection
[11] = tumor, uptake Tumor 0.25 h, ^68Ga-labeled, HEK-FAP tumor, PET/CT, 0.25 h post tracer injection
[12] = tumor, uptake Tumor 1 h, ^68Ga-labeled, HEK-FAP tumor, PET/CT, 1 h post tracer injection
[13] = tumor, uptake Tumor 3 h, ^68Ga-labeled, HEK-FAP tumor, PET/CT, 3 h post tracer injection
[14] = pIC50 Category (activity), Recombinant human FAP

Row | SMILES | IC50 [1] [nM] | Kd (Human recombinant FAP [2]) [nM] | IC50 (Human recombinant FAP [3]; [4]) [nM] | tissue uptake at 0.25 h (in vivo; [5]) [%ID/g] | tissue uptake at 1 h (in vivo; [6]) [%ID/g] | tissue uptake at 3 h (in vivo; [7]) [%ID/g] | tissue uptake at 0.25 h (in vivo; [8]) [%ID/g] | tissue uptake at 1 h (in vivo; [9]) [%ID/g] | tissue uptake at 3 h (in vivo; [10]) [%ID/g] | tissue uptake at 0.25 h (in vivo; [11]) [%ID/g] | tissue uptake at 1 h (in vivo; [12]) [%ID/g] | tissue uptake at 3 h (in vivo; [13]) [%ID/g] | IC50 (Human recombinant FAP [3]; [14]) [nM] | tissue uptake at 0.25 h (in vivo; blood pool surrogate (BPS)) [%ID/g] | tissue uptake at 1 h (in vivo; blood pool surrogate (BPS)) [%ID/g] | tissue uptake at 3 h (in vivo; blood pool surrogate (BPS)) [%ID/g] | tissue uptake at 0.25 h (in vivo; kidneys) [%ID/g] | tissue uptake at 1 h (in vivo; kidneys) [%ID/g] | tissue uptake at 3 h (in vivo; kidneys) [%ID/g] | tissue uptake at 0.25 h (in vivo; tumor) [%ID/g] | other results
1 | CCCCNC(=O)N[C@H]1CSCc2cc(CSCCNC(=O)CN3CCN(CC(=O)O)CCN(CC(=O)O)CCN(CC(=O)O)CC3)cc(c2)CSC[C@@H](C(=O)O)NC(=O)[C@H](Cc2ccccc2)NC(=O)[C@H](CCC(N)=O)NC(=O)[C@H]([C@@H](C)O)NC(=O)[C@@H]2CCCN2C(=O)CN(C)C1=O [3BP-4607, nBu-CAyl-[Cys(tMeBn(DOTA-AET))-Nmg-Pro-Thr-Gln-Phe-Cys]-OH] ({NHBu-CO}-C[Sar]PTQFC-OH; linker 1-7 via TBMB(SCH2CH2NH-DOTA)) | < 10 | < 10 | < 10 | – | – | – | – | – | – | – | – | – | – | – | – | – | – | – | – | – | –
2 | CCCCNC(=O)N[C@H]1CSCc2cc(CSCCNC(=O)CN3CCN(CC(=O)O)CCN(CC(=O)O)CCN(CC(=O)O)CC3)cc(c2)CSC[C@@H](C(N)=O)NC(=O)[C@H](Cc2ccccc2)NC(=O)[C@H](CCC(N)=O)NC(=O)[C@H]([C@@H](C)O)NC(=O)[C@@H]2CCCN2C(=O)CN(C)C1=O [3BP-4621, nBu-CAyl-[Cys(tMeBn(DOTA-AET))-Nmg-Pro-Thr-Gln-Phe-Cys]-NH2] ({NHBu-CO}-C[Sar]PTQFC-NH2; linker 1-7 via TBMB(SCH2CH2NH-DOTA)) | < 10 | < 10 | < 10 | – | – | – | – | – | – | – | – | – | – | – | – | – | – | – | – | – | –
3 | CCCCNC(=O)N[C@H]1CSCc2cc(CSCCNC(=O)CCP(=O)(O)CN3CCN(CP(=O)(O)CO)CCN(CP(=O)(O)CO)CC3)cc(c2)CSCC(C(=O)O)NC(=O)[C@H](Cc2ccccc2)NC(=O)[C@H](CCC(N)=O)NC(=O)[C@H]([C@@H](C)O)NC(=O)[C@@H]2CCCN2C(=O)[C@@H]2CCCN2C1=O (stereo partly drawn) [3BP-4768, nBu-CAyl-[Cys(tMeBn(NOPO-AET))-Pro-Pro-Thr-Gln-Phe-Cys]-OH] | < 10 | < 10 | – | 2.54 | 0.78 | 0.27 | 18.4 | 2.45 | 0.67 | 7.82 | 9.42 | 9.2 | < 10 | – | – | – | – | – | – | – | –
4 | CCCCNC(=O)N[C@H]1CSCc2cc(CSCCNC(=O)CCP(=O)(O)CN3CCN(CP(=O)(O)CO)CCN(CP(=O)(O)CO)CC3)cc(c2)CSCC(C(=O)O)NC(=O)[C@H](Cc2ccccc2)NC(=O)[C@H](CCC(=O)O)NC(=O)[C@H]([C@@H](C)O)NC(=O)[C@@H]2CCCN2C(=O)[C@@H]2CCCN2C1=O (stereo partly drawn) [3BP-4778, nBu-CAyl-[Cys(tMeBn(NOPO-AET))-Pro-Pro-Thr-Glu-Phe-Cys]-OH] ({NHBu-CO}-CPPTEF[ξC]-OH; linker 1-7 via X7) | < 10 | < 10 | – | 1.61 | 0.77 | 0.33 | 3.38 | 1.81 | 1 | 3.66 | 4.06 | 4.45 | < 10 | – | – | – | – | – | – | – | –
5 | CCCC[C@H](NC(=O)CCC(=O)NCCCOCCOCCOCCCNC(=O)CN1CCN(CC(=O)O)CCN(CC(=O)O)CC1)C(=O)N[C@H]1CSCc2cccc(c2)CSCC(C(=O)O)NC(=O)[C@H](Cc2ccccc2)NC(=O)[C@H](CCC(N)=O)NC(=O)[C@H]([C@@H](C)O)NC(=O)[C@@H]2CCCN2C(=O)[C@@H]2CCCN2C1=O (stereo partly drawn) [3BP-5201, NOTA-Ttds-Nle-[Cys(3MeBn)-Pro-Pro-Thr-Gln-Phe-Cys]-OH] | < 10 | < 10 | – | – | – | – | – | – | – | – | – | – | 10 to 79.4 | 2.31 | 0.85 | 0.38 | 9.27 | 1.97 | 1 | 5.56 | tissue uptake at 1 h (in vivo; tumor): 6.3 %ID/g; tissue uptake at 3 h (in vivo; tumor): 6.25 %ID/g
6 | CCCCNC(=O)N[C@H]1CSCc2cc(CSCCNC(=O)CN3CCN(CC(=O)O)CCN(CC(=O)O)CC3)cc(c2)CSCC(C(=O)O)NC(=O)[C@H](Cc2ccccc2)NC(=O)[C@H](CCC(N)=O)NC(=O)[C@H]([C@@H](C)O)NC(=O)[C@@H]2CCCN2C(=O)[C@@H]2CCCN2C1=O (stereo partly drawn) [3BP-5210, nBu-CAyl-[Cys(tMeBn(NOTA-AET))-Pro-Pro-Thr-Gln-Phe-Cys]-OH] | < 10 | < 10 | – | – | – | – | – | – | – | – | – | – | < 10 | 2.72 | 0.68 | 0.14 | 37.3 | 5.61 | 0.42 | 7.48 | tissue uptake at 1 h (in vivo; tumor): 8.9 %ID/g; tissue uptake at 3 h (in vivo; tumor): 9.53 %ID/g
